Test results taken from paper PMC12387680, “Mohangic Acid H and Mohangiol: New p-Aminoacetophenone Derivatives from a Mudflat-Derived Streptomyces sp” (Marine Drugs, 2025).
Read-outs that look alike come from different tables or passages of the source.

Legend:
[1] = target: T1, isocitrate lyase (ICL) (Candida albicans, UniProt Q9P8Q7); assay: biochemical
T1 construct: gene ICL1; recombinant ICL

[2] = tested on: T2, E. coli; assay: microbe, parasite or virus in culture; set-up: broth microdilution antibacterial MIC, growth inhibition; conditions: Escherichia coli, 24 h
T2 construct: ATCC 25922
Protocol: (§1) Three species of Gram-positive bacteria (Staphylococcus aureus ATCC 25923, Enterococcus faecalis ATCC 19433, and Enterococcus faecium ATCC 19434) and three species of Gram-negative bacteria (Klebsiella pneumoniae ATCC 10031, Salmonella enterica ATCC 14028, and Escherichia coli ATCC 25922) as human pathogens were selected as test strains and prepared for the antibacterial activity assays. The test bacterial strains were cultured overnight in Mueller–Hinton broth (MHB) at 37 °C for human pathogens and in tryptic soy broth (TSB) at 28 °C for B. thuringiensis. The grown strains were harvested by using a centrifuge and washed twice with sterilized water. Ampicillin and tetracycline were used as positive controls, and dimethyl sulfoxide (DMSO) was used as a negative control. Each compound, including 1 and 2, was dissolved in DMSO and diluted with MHB or TSB to prepare serial two-fold dilutions (from 128 µg/mL to 0.015 µg/mL). For the antibacterial activity assay, 10 µL of suspensions containing 1 × 10^6 colony forming units (CFU)/mL of the test bacteria and 190 µL of MHB or TSB, which included the positive control compounds or test compounds, were added into each well of a 96-well plate (final concentration of test bacteria was 5 × 10^4 CFU/mL). Then, the plate was incubated at 37 °C or 28 °C for 24 h. […] The biological activities of mohangic acid H (1) and mohangiol (2) were evaluated in multiple ways. 1 and 2 were evaluated for inhibitory activities against pathogenic bacteria (Staphylococcus aureus ATCC 25923, Enterococcus faecalis ATCC 19433, Enterococcus faecium ATCC 19434, Salmonella enterica ATCC 14028, Escherichia coli ATCC 25922, Klebsiella pneumoniae ATCC 10031) and fungi (Candida albicans ATCC 10231, Aspergillus fumigatus HIC 6094, Trichophyton rubrum NBRC 9185, Trichophyton mentagrophytes IFM 40996) in broth microdilution MIC assays.

[3] = tested on: T3, E. faecalis; assay: microbe, parasite or virus in culture; set-up: broth microdilution antibacterial MIC, growth inhibition; conditions: Enterococcus faecalis, 24 h
T3 construct: ATCC 19433
Protocol: as §1

[4] = tested on: T4, E. faecium; assay: microbe, parasite or virus in culture; set-up: broth microdilution antibacterial MIC, growth inhibition; conditions: Enterococcus faecium, 24 h
T4 construct: ATCC 19434
Protocol: as §1

[5] = tested on: T5, K. pneumonia; assay: microbe, parasite or virus in culture; set-up: broth microdilution antibacterial MIC, growth inhibition; conditions: Klebsiella pneumoniae, 24 h
T5 construct: ATCC 10031
Protocol: as §1

[6] = tested on: T6, S. aureus; assay: microbe, parasite or virus in culture; set-up: broth microdilution antibacterial MIC, growth inhibition; conditions: Staphylococcus aureus, 24 h
T6 construct: ATCC 25923
Protocol: as §1

[7] = tested on: T7, S. enterica; assay: microbe, parasite or virus in culture; set-up: broth microdilution antibacterial MIC, growth inhibition; conditions: Salmonella enterica, 24 h
T7 construct: ATCC 14028
Protocol: as §1

[8] = tested on: T8, A. fumigatus; assay: microbe, parasite or virus in culture; set-up: broth microdilution antifungal MIC in RPMI 1640, growth inhibition; conditions: Aspergillus fumigatus, 48 h
T8 construct: HIC 6094
Protocol: (§2) Potato dextrose agar (PDA) was used to cultivate Candida albicans ATCC 10231. After incubation for 48 h at 28 °C, the yeast cells were harvested by centrifugation and washed twice with sterile distilled water. Aspergillus fumigatus HIC 6094, Trichophyton rubrum NBRC 9185, and Trichophyton mentagrophytes IFM 40,996 were also plated on PDA and incubated for 2 weeks at 28 °C. Spores were harvested and washed twice with sterile distilled water. Stock solutions of 1 and 2 were prepared in DMSO. Each stock solution was diluted with RPMI 1640 broth (Difco, Livonia, MI, USA) to give serial twofold dilutions in the range of 0.06–128 µg/mL. The final DMSO concentration was maintained at 1% by adding DMSO to the broth. Aliquots (10 µL) of the RPMI 1640 broth containing approximately 10^4 cells/mL were mixed with the test compound solutions in each well of a 96-well plate. The plates were incubated for 24 h (for C. albicans), 48 h (for A. fumigatus), and 96 h (for T. rubrum and T. mentagrophytes) at 37 °C. A culture with DMSO (1%) was used as a solvent control, and a culture supplemented with amphotericin B was used as a positive control. The biological activities of mohangic acid H (1) and mohangiol (2) were evaluated in multiple ways. 1 and 2 were evaluated for inhibitory activities against pathogenic bacteria (Staphylococcus aureus ATCC 25923, Enterococcus faecalis ATCC 19433, Enterococcus faecium ATCC 19434, Salmonella enterica ATCC 14028, Escherichia coli ATCC 25922, Klebsiella pneumoniae ATCC 10031) and fungi (Candida albicans ATCC 10231, Aspergillus fumigatus HIC 6094, Trichophyton rubrum NBRC 9185, Trichophyton mentagrophytes IFM 40996) in broth microdilution MIC assays.

[9] = tested on: T9, C. albicans; assay: microbe, parasite or virus in culture; set-up: broth microdilution antifungal MIC in RPMI 1640, growth inhibition; conditions: Candida albicans, 24 h
T9 construct: ATCC 10231
Protocol: as §2

[10] = tested on: T10, T. mentagrophytes; assay: microbe, parasite or virus in culture; set-up: broth microdilution antifungal MIC in RPMI 1640, growth inhibition; conditions: Trichophyton mentagrophytes, 96 h
T10 construct: IFM 40996
Protocol: as §2

[11] = tested on: T11, T. rubrum; assay: microbe, parasite or virus in culture; set-up: broth microdilution antifungal MIC in RPMI 1640, growth inhibition; conditions: Trichophyton rubrum, 96 h
T11 construct: NBRC 9185
Protocol: as §2

[12] = read-out: IC50 (μg/mL) (converted)

T1 sequence (Q9P8Q7 whole entry): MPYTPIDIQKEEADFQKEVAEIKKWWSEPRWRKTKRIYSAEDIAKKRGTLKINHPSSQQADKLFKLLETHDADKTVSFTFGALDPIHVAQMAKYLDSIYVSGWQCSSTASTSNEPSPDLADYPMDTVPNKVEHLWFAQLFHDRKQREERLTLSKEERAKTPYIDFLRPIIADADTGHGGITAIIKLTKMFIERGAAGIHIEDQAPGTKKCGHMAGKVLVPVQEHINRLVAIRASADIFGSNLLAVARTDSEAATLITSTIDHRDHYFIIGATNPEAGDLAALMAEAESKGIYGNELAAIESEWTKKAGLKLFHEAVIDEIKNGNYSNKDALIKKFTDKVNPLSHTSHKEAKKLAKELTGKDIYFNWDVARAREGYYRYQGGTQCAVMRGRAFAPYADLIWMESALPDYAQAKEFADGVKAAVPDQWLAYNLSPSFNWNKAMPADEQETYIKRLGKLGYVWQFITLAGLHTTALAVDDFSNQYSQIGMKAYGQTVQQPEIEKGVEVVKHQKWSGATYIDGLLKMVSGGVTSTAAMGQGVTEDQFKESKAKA

Row | Structure (SMILES) | IC50 [1] | IC50 [1, 12] | MIC [2] | MIC [3] | MIC [4] | MIC [5] | MIC [6] | MIC [7] | MIC [8] | MIC [9] | MIC [10] | MIC [11]
1 | O=C(O)CC[N+](=O)[O-] [3-nitropropionate, reference compound] | 126 µM |  |  |  |  |  |  |  |  |  |  | 
2 | CC(=O)Nc1ccc(C(=O)C[C@@H](O)[C@H](C)C[C@@H](C)[C@H](O)[C@H](C)/C=C/C=C/C(=O)O)cc1 [compound 1, Mohangic acid H] |  | 49.5 µM | > 128 µM | > 128 µM | > 128 µM | > 128 µM | > 128 µM | > 128 µM | > 128 µM | > 128 µM | > 128 µM | > 128 µM
3 | C[C@H](O)CC/C=C/C=C/[C@@H](C)[C@@H](O)[C@H](C)C[C@@H](C)[C@H](O)CC(=O)c1ccc(N)cc1 [compound 2, Mohangiol] |  | 50.6 µM | > 128 µM | > 128 µM | > 128 µM | > 128 µM | > 128 µM | > 128 µM | > 128 µM | > 128 µM | > 128 µM | > 128 µM
